# Values of other authors, collected in patent US20220206017A1, “AEROBIC GLYCOLYSIS AND HYPERMETABOLIC STATES” (priority 2022, published 2022).
# Key:
# [1] = 3BP and DCA intravenous; 2DG oral
# [2] = target: T1, hexokinase II (Homo sapiens, UniProt P52789); conditions: inhibition of hexokinase II; reported value
# T1 sequence (P52789 1-917): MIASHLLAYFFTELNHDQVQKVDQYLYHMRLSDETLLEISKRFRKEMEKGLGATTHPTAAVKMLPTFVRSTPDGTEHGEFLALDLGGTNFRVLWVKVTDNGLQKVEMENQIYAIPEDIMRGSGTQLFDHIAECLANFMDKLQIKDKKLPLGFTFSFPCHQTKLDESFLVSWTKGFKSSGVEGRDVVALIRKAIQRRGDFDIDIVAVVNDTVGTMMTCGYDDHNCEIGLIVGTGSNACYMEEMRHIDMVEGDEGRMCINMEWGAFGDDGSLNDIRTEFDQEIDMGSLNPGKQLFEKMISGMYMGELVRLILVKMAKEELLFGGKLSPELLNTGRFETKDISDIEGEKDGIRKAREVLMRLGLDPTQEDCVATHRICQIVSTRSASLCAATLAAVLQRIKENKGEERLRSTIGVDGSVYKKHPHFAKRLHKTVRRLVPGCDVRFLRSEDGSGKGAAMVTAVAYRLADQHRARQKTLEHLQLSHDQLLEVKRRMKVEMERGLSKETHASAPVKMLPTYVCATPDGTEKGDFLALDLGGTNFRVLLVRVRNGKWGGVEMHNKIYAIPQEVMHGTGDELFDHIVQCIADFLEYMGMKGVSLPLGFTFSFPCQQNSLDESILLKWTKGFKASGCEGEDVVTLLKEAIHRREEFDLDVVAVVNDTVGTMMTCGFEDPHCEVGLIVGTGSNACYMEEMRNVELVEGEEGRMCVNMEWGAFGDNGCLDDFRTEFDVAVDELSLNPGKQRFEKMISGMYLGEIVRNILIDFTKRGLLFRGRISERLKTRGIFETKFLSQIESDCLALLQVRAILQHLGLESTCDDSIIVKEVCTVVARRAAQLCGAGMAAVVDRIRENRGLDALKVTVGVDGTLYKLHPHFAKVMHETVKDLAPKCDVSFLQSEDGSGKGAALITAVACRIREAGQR
# [3] = tested on: Red blood cells (RBC); conditions: monotherapy at known clinical doses
# [4] = tested on: melanoma; conditions: in vivo; compared to L-Lactic Acid Dimer (LLAD) and phosphate buffered saline control; FIG. 3, ref [4]
SMILES,side effects of administration / clinical use [1],Ki [2] [µM],RBC hemolysis [3],melanoma cytotoxicity as measured by Ki-67 nuclei [4]
"O=C(O)C(=O)CBr [3BP, 3-Bromopyruvate]",pain and phlebitis,,,
"O=C(O)C(Cl)Cl [DCA, Dichloroacetate]",neurotoxicity,,,
"O=CC[C@@H](O)[C@H](O)[C@H](O)CO [2DG, 2-Deoxy-D-Glucose]",generally well tolerated,2900,does not cause RBC hemolysis,
"C[C@@H](O)C(=O)O[C@H](C)C(=O)O [DLAD, D-Lactic Acid Dimer]",,,,impressive melanoma cytotoxicity
